The test system of data set [1] is mouse seizure models. More on the design: key: +: Efficacy in mouse seizure models is indicated as plus; −: minus; some (+/−). The following applies: literature; the PTZ model was performed in rats for PHB, PHT and VPA; cited from earlier work.
In data set [2] the test system is mouse seizure models. More on the design: key: +: Efficacy in mouse seizure models is indicated as plus; −: minus; some (+/−). Particulars: literature; cited from earlier work.
The test system of data set [3] is Wistar rats. More on the design: key to Efficacy in PTZ in PILO-SE rodents (chronic): +: Efficacy in mouse seizure models is indicated as plus; −: minus; some (+/−). The following applies: cited from earlier work; for sensitivity of PTZ-induced seizures to drug: one month after pilocarpine, subcutaneous PTZ.
Data set [4] relates to mouse seizure models. More on the design: key: +: Efficacy in mouse seizure models is indicated as plus; −: minus; some (+/−). Particulars: literature; cited from earlier work. This is another data set of the same source.
Data set [5] relates to mouse seizure models. Set-up: key: +: Efficacy in mouse seizure models is indicated as plus; −: minus; some (+/−). The following applies: literature; cited from earlier work. This is another data set of the same source.
How the values of data set [6] were obtained: All mice were housed under a 12 h light dark cycle with free access to food and water. […] Adult male CD1 mice (20-35 g, Australian Institute for Bioengineering and Nanotechnology, Australia) were fed similar diet, prepared by Western Specialty Feed (West Australia). […] Diets were mixed fresh every 3-4 days in the laboratory, dried and then supplied to the mice. Mice were initially weighed daily to ensure adequate nutrition.
After 4 days habituation, food intake and body weight were determined daily and then averaged per day for each mouse. 24 h urine samples were taken and organic acids isolated by liquid partition chromatography and trimethylsilyl derivatives quantified by gas chromatography mass spectrometry (Sweetman, 1991). In a separate study mice were fed respective diets for 3 weeks and were decapitated after isoflurane anaesthesia between 1-4 pm. Trunk blood was collected on absorbent filter paper for measurement of acyl-carnitine levels in dried blood spots using tandem mass spectrometry modified from the method of Rashed et al. (Rashed et al., 1997).

Data set [7] can be described thus: Urine organic acids (GC-MS). In kind it is in vivo, mice. Particulars: 24 h urine; levels well below those of propionic acidemia patients.
Data set [8] has as its system CD1 mice. Briefly: Maximal electroshock threshold test (MEST). In kind it is in vivo. Set-up: key to Efficacy in MEST (acute): +: Efficacy in mouse seizure models is indicated as plus; −: minus; some (+/−). As for the experimental part:
0.5% Tetracaine (Sigma Aldrich) in 0.9% NaCl solution was applied to corneas 30 minutes prior to stimulation. Saline solution was also applied to corneas and electrodes immediately prior to stimulation to ensure solid conduction. Mice were administered corneal electroshocks, which were generated using a Hugo Sachs Type 211 rodent shocker (Harvard Apparatus, Germany). Stimulation parameters of 50-60 Hz sine wave frequency, 0.2 second shock duration starting at an 11 mA current were used (Giardina and Gasior, 2009). Immediately following shock administration mouse seizure behaviour was observed. Severe clonic convulsions followed by tonic extension of both forelimbs were classified as seizures. 1 mA increments were used to determine the seizure threshold CC50 value using the up down method (Kimball et al., 1957). All mice were terminated via cervical dislocation immediately following seizure observational time.
Background: The maximal electroshock test induces tonic seizures with an electrical stimulus.

In data set [9] the test system is CF1 mice. Nature of the data set: Corneal kindling. Set-up: key to Delay in corneal kindling (chronic): +: Efficacy in mouse seizure models is indicated as plus; −: minus; some (+/−). The format is in vivo. As for the experimental part:
The corneal kindling model was slightly modified from the original protocol ([…] and […], 1998) with kindling twice a day with at least 4 h intervals. A topical anesthetic (0.5% tetracaine hydrochloride ophthalmic solution) was applied to the corneas 10-15 min before stimulation. After wetting the electrodes with 0.9% NaCl immediately before testing, 9 mA 0.4 ms duration pulses at 50 Hz were applied to the corneas for 3 seconds by a constant-current device (ECT Unit 57800, Ugo Basile). Mice were manually held during stimulation and then released for behavioral observation. Seizures were scored according to a modified Racine scale (Racine, 1972) as described by […] and […] (1998) with 0=no reaction or immobility; 1=jaw clonus; 2=myoclonic twitches in the forelimbs, sometimes with head nodding; 3=clonic convulsions in the forelimbs; 4=clonic convulsions in the forelimbs with rearing and falling; 5=loss of balance. […] Both groups had the same average seizure scores for the full kindling period and the last three days of kindling. During the five following weeks, mice were rekindled every week twice a day on two consecutive days and the scores were averaged.

Data set [10] has as its system CF1 mice. Briefly: PTZ (i.v.) seizure threshold, second hit model in chronic stage of pilocarpine SE model. The format is in vivo. More on the design: key to Efficacy in PTZ in PILO-SE rodents (chronic): +: Efficacy in mouse seizure models is indicated as plus; −: minus; some (+/−). As for the experimental part:
The pilocarpine CF1 mouse model used in this study was slightly modified from our previous description (Borges et al., 2003, Borges et al., 2004, Borges et al., 2006, Borges et al., 2008). 26-43 g CF1 mice were injected with methylatropine (2 mg/kg i.p. in 0.9% NaCl) to minimize peripheral side effects followed after 15-30 min by different doses of pilocarpine for CF1 mice (270-360 mg/kg, s.c.). About fifty percent of injected mice experienced behavioral status epilepticus (SE) lasting about four hours as defined by continuous seizure activity consisting mainly of whole body continuous clonic seizures. 4.5 h after pilocarpine injection, all mice were injected with pentobarbital (22.5 mg/kg, i.p.) followed by 1 ml 5% dextrose in lactate Ringer's solution (i.p.). After SE, mice were monitored daily, hand-fed moistened cookies and injected with 5% dextrose in lactate Ringer's solution twice a day for about three days and thereafter when needed. Spontaneous and handling-induced seizures, including stage 3-5 seizures, jumping and wild running, were noted. […] “Sham control” mice received methylatropine and pentobarbital, but saline instead of pilocarpine. Out of a total of 205 mice injected with pilocarpine, the inventors obtained 44% SE, 41% no SE mice, while 14% of mice died. In the chronic stage of the pilocarpine model, the seizure thresholds for the first generalized clonic and tonic seizures induced by pentylenetetrazole (PTZ, i.v.) as a measure for seizure susceptibility of SE, no SE and control mice were assessed. As previously described ([…] et al., 2008, Willis et al., 2009), 10 mg/ml PTZ dissolved in saline was infused into the tail vein at 150 μl/min. The latencies to the first generalized myoclonic seizure and tonic extension were determined and converted to seizure thresholds expressed as mg/kg body weight. Mice were euthanized by cervical dislocation immediately after the tonic extension seizure.

The nature of data set [11]: Brain metabolite analysis in chronic stage of pilocarpine model (GC-MS/LC-MS). In kind it is in vivo, CF1 mice. Particulars: for brain BHB (β-hydroxybutyrate) / brain Fumarate (%) / brain GABA / brain aspartate (%) / brain citrate / brain glutamate / brain glutamine / brain malate (%) / brain succinate: 35% triheptanoin for three weeks. The text has this: (§1) Both groups of mice received standard diet during the phase of epileptogenesis, the first two weeks after SE. They were then divided into two groups of equal average weight and received either standard or 35% triheptanoin-containing diet for three weeks. To avoid metabolite changes induced by anesthesia, mice were killed by cervical dislocation and then decapitated. Within 22-32 seconds brains without cerebellum were frozen in liquid nitrogen. Trunk blood was collected in heparinized tubes for analysis of β-hydroxybutyrate and glucose using kits from Pointe Scientific and […], respectively. Brains were stored at -80 C and shipped to the Metabolic Mouse Phenotyping Center at Case Western University for chromatography mass spectrometry (GC-MS/LC-MS) analysis and characterization of intermediates and products of the CAC and acyl-CoA's.

The nature of data set [12]: Plasma β-hydroxybutyrate and glucose in pilocarpine model. In kind it is in vivo, CF1 mice. The following applies: no significant changes; range over the SE/no SE and diet groups.
Source text: as §1

Data set [13] deals with mouse seizure models. Briefly: PTZ (acute) seizure model. The format is in vivo. More on the design: key to Efficacy in PTZ (acute): +: Efficacy in mouse seizure models is indicated as plus; −: minus; some (+/−).
Data set [14] deals with mouse seizure models. Nature of the data set: 6 Hz (acute) seizure model. The format is in vivo. More on the design: key to Efficacy in 6 Hz (acute): +: Efficacy in mouse seizure models is indicated as plus; −: minus; some (+/−).
Data set [15] deals with acute seizure models. Briefly: Fluorothyl acute seizure model. In kind it is in vivo. The following applies: 30% triheptanoin (Willis and Borges in preparation).
Where [16] appears, read: chronically epileptic SE mice, not in no SE mice.
Setting [17] is: 30% triheptanoin (Willis and Borges in preparation).

Read-outs that look alike come from different tables or passages of the source.

In the case of `O=C1NC(=O)C(c2ccccc2)(c2ccccc2)N1` [PHT, phenyloin], in [1], the “Efficacy in PTZ (acute)” value is “−”. For the same molecule, in data set [2], the “Efficacy in 6 Hz (acute)” value was “+”. Also, the “sensitivity of PTZ-induced seizures to drug” value is “not in SE rats” in data set [3] (SE Wistar rats) and “sensitive” in data set [3] (no SE Wistar rats). Also, the “Efficacy in PTZ in PILO-SE rodents (chronic)” value in data set [3] (literature, PTZ model performed in rats for PHB, PHT and VPA) is recorded as “−”. Also, the “Efficacy in MEST (acute)” value in data set [4] is “+”.

In the case of `NC(=O)N1c2ccccc2C=Cc2ccccc21` [CBZ, carbamazepine], the “Efficacy in PTZ (acute)” value in data set [1] was “−”. The “Efficacy in 6 Hz (acute)” value in [2] is given as “+/−”. In addition, the “Efficacy in MEST (acute)” value in [4] is reported as “+”.

Turning to `CC[C@@H](C(N)=O)N1CCCC1=O` [LEV, levetiracetam], in data set [1], the “Efficacy in PTZ (acute)” value is “−”. Besides, the “Efficacy in 6 Hz (acute)” value in data set [2] is “+”. Besides, the “Efficacy in MEST (acute)” value in data set [4] was “−”. In [5], the “Delay in corneal kindling (chronic)” value is on record as “+”.

As for `CCCCCCC(=O)OCC(COC(=O)CCCCCC)OC(=O)CCCCCC` [Triheptanoin, 1,3-di(heptanoyloxy)propan-2-yl heptanoate], the body weights result in [6] (35% triheptanoin diet vs standard chow, up to 52 days, CF1 mice) is given as “statistically indistinguishable”. In addition, in [6] (mouse, in vivo), the tolerability entry is reported as “well tolerated”. For the same molecule, the “urine markers for propionic acidemia (methylmalonate, methylcitrate)” value in [7] is “some increases”. In [8] (35% of daily caloric intake as triheptanoin oil, after 3.5 and six weeks, CD1 mice, p=0.018 and p<0.0011), the “MEST (critical current at which 50% of mice seize, CC50)” value is given as “reproducible increase”. In addition, in data set [8] (mouse), the “Efficacy in MEST (acute)” value is “+”. In addition, the “development of corneally kindled seizures” value in [9] (35% triheptanoin feeding from three weeks prior to and throughout kindling, CF1 mice) is reported as “delayed the development of kindled seizures”. The “Delay in corneal kindling (chronic)” value in data set [9] (mouse) is “+”. Further, the “PTZ clonic seizure thresholds” value in data set [10] (SE or no SE mice, diet for three weeks after pilocarpine) was “no effect”. Moreover, in data set [10] (diet initiated immediately after pilocarpine injection, three weeks, p<0.05), the “reversal of increased susceptibility to PTZ tonic extension in SE mice” value is given as “about 40%”. For the same molecule, the “Efficacy in PTZ in PILO-SE rodents (chronic)” value in data set [10] (mice) was “+”. For the same molecule, the “reversal of susceptibility to PTZ tonic extension in no SE mice” value in [10] (no SE mice, three weeks after pilocarpine injection) was “but not in no SE mice”. Further, the “counteraction of 30% increased susceptibility to tonic extension seizure in SE mice” value in [10] (three week feeding initiated two weeks after pilocarpine injection, p<0.05) is “about 50%”. The “brain β-hydroxybutyrate levels” value in [11] (35% triheptanoin diet, both SE and no SE brains) is reported as “doubled”. In addition, in data set [11] (No SE mice), the “brain BHB (β-hydroxybutyrate)” value was 108.9 ± 9.6 μmol/g wet weight, the “brain Fumarate (%)” value is listed as 82.8 ± 3.8 % of control, the “brain GABA” value is 2.36 ± 0.13 μmol/g wet weight and the “brain aspartate (%)” value is on record as 104.0 ± 7.0 % of control. For the same molecule, in data set [11] (No SE mice), the brain citrate was determined as 0.21 ± 0.01 μmol/g wet weight, the brain glutamate was determined as 21.59 ± 0.92 μmol/g wet weight, the brain glutamine amounted to 12.91 ± 0.49 μmol/g wet weight and the “brain malate (%)” value was 125.5 ± 7.7 % of control. The brain succinate in [11] (No SE mice) was 0.11 ± 0.01 μmol/g wet weight. For the same molecule, in data set [11] (SE mice), the “brain BHB (β-hydroxybutyrate)” value was 127.4 ± 15.7 μmol/g wet weight, the “brain Fumarate (%)” value is given as 81.4 ± 2.9 % of control, the “brain GABA” value is given as 2.16 ± 0.05 μmol/g wet weight and the “brain aspartate (%)” value is given as 76.6 ± 4.1 % of control. In addition, in [11] (SE mice), the brain citrate is given as 0.2 ± 0.01 μmol/g wet weight, the brain glutamate was 22.01 ± 1.65 μmol/g wet weight, the brain glutamine came out at 13.15 ± 0.48 μmol/g wet weight and the “brain malate (%)” value is 80.1 ± 3.9 % of control. The brain succinate in data set [11] (SE mice) amounted to 0.10 ± 0.01 μmol/g wet weight. In addition, the “brain propionyl-CoA levels” value in data set [11] (SE mice, triheptanoin feeding, p<0.001) is recorded as “restored”. The “steady state brain level of succinyl-CoA” value in data set [11] (by SE or diet) is given as “No significant changes”. Also, in [11] (setting [16]), the “increase of brain HMG-CoA levels” value turned out to be 1.8 fold and the “increase of brain methylmalonyl-CoA levels” value is 1.4 fold. In addition, in [11] (no SE mice, p<0.05), the “decrease of brain fumarate levels” value amounted to 17% and the “increase of brain malate levels” value is given as 26%. Besides, in data set [12], the “plasma levels of glucose” value fell in the range of 174 to 228 mg/dL and the “plasma levels of β-hydroxybutyrate” value was 0.17 to 0.28 mM. In data set [13] (setting [17]), the “anticonvulsant effect in acute PTZ (i.v.) model” value was “No consistent anticovulsant effect”. Moreover, the “Efficacy in PTZ (acute)” value in data set [13] (mouse) is reported as “−”. For the same molecule, the “anticonvulsant effect in acute 6 Hz model” value in [14] (setting [17]) is “No consistent anticovulsant effect”. In addition, the “Efficacy in 6 Hz (acute)” value in data set [14] (mouse) is “−”. The “anticonvulsant effect in acute fluorothyl model” value in [15] was “No consistent anticovulsant effect”.
